Tests used:
Colo205 cells = assay: Cell-based proliferation assay (cyquant), Colo205; conditions: Homo sapiens, 96 h treatment;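 note: Colo205 human colon cancer cells exposed to compounds over a concentration range for 96 h, growth read by CyQUANT proliferation assay, GI50 taken from fitted dose-response curves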
Protocol: A549 and Colo205 cells were seeded in 96-wells plate at 2000 and 5000 cells per well respectively. […] The plates were incubated at 37° C., 5% CO2, for 24 h. Cells were treated with compounds at various concentration for 96 h. Cell growth was then monitored using cyquant cell proliferation assay (Invitrogen Pte Ltd). Dose response curves were plotted to determine GI50 values for the compounds using XL-fit.

MDA-MB435 cells = assay: Cell-based proliferation assay (cyquant), MDA-MB435; conditions: Homo sapiens, MDA-MB-435; 96 h treatment
Protocol: Cell-Based Proliferation Assay for Determination of GI50 Values
Human colon cancer cell lines (Colo205 and HCT116), human breast cancer cell lines (MDA-MB435 and MDA-MB231), and human lung cancer cell line (A549) were obtained from ATCC. Colo205 cells were cultivated in RPMI 1640 containing 2 mM L-Glutamine, 5% FBS, 1.0 mM Na Pyruvate. A549 and MDA-MB231 were cultivated in RPMI 1640 containing 2 mM L-glutamine, 5% FBS. MDA-MB435 cells were cultivated in DMEM containing 2 mM L-Glutamine, 5% FBS. HCT116 cells were cultivated in IMEM containing 2 mM L-Glutamine, 5% FBS. A549 and Colo205 cells were seeded in 96-wells plate at 2000 and 5000 cells per well respectively. MDA-MB435, HCT116, MDA-MB231 cells were seeded in 96-wells plate at 6000 cells per well. The plates were incubated at 37° C., 5% CO2, for 24 h. Cells were treated with compounds at various concentration for 96 h. Cell growth was then monitored using cyquant cell proliferation assay (Invitrogen Pte Ltd). Dose response curves were plotted to determine GI50 values for the compounds using XL-fit.

[1] = system: acetylated histone 3 [AcH3(lys9/14)] in Colo205 cells; assay: Histone H3 acetylation assay, ELISA approach; assay type: cell-based; conditions: Homo sapiens, COLO 205, read-out: EC50, concentration effective for induction of acetylation of histone 3 ([AcH3(lys9/14)]) signal by 50%, 24 h treatment
Protocol: Histone H3 Acetylation Assay—ELISA Approach
An Enzyme Linked Immunosorbent Assay (ELISA) can be applied to detect and quantify the acetylated histone3 (AcH3) in the protein lysate obtained from cancer cell lines treated with the HDAC inhibitors.
The ELISA assay was developed to detect the level of AcH3 from the Colo205 colon cancer cell line treated with 10 μM HDAC inhibitory compounds. The protein lysates from untreated and treated Colo205 were obtained as previously described. The concentration of protein from lysed cells was determined using the BCA method (Sigma-Aldrich Pte Ltd).
The detection antibody used in this ELISA was donkey anti rabbit conjugated with peroxidase.
Colo205 cells were subsequently treated with HDAC inhibitors at different doses (in duplicates, 9 doses treatment, 4-fold dilutions from 100 μM). After treatment for 24 h, cells were lysed and the protein concentration was determined.
The ELISA plate (immulon 2HB plate, Biolaboratories Pte Ltd) was coated with 4 μg/ml of mouse monoclonal antibody against H3 at 4° C. overnight. […] The absorbance was measured at OD450 nm using Spectromax reader (Molecular Devices Corporation, Sunnyvale, Calif.).
The standard curve was drawn and the concentration of AcH3 [(Lys9/14), μg/ml] in a sample was determined using the Softmax software in Spectromax. The amount of AcH3 in a sample was calculated based on the following formula; […]

HDAC3 = HDAC3 (Homo sapiens (Human), UniProt O15379); assay: In vitro HDAC assay, HDAC3; assay type: biochemical; conditions: Free base
HDAC3, sequence (O15379 whole entry): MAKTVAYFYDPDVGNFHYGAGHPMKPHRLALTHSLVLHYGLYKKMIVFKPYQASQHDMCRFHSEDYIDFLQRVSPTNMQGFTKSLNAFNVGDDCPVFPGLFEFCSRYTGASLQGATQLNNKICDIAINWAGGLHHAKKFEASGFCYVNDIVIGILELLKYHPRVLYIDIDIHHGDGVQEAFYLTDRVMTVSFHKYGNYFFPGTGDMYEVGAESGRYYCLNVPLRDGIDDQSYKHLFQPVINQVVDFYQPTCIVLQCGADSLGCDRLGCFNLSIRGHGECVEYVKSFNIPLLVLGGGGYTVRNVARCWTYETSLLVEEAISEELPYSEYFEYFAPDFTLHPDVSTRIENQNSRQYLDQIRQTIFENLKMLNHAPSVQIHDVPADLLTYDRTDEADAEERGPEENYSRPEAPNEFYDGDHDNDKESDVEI
Protocol: In Vitro HDAC Assay for Determination of IC50 Values
The assay has been carried out in 96 well format and the BIOMOL fluorescent-based HDAC activity assay has been applied. […] Flur de lys Developer was added and the reaction was incubated for 10 min. Briefly, deacetylation of the substrate sensitizes it to the developer, which then generates a fluorophore (symbol). The fluorophore is excited with 360 nm light and the emitted light (460 nm) is detected on a fluorometric plate reader (Tecan Ultra Microplate detection system, Tecan Group Ltd.).
The analytical software, Prism 3.0 has been used to generate IC50 from a series of data.

[2] = biological target: HDAC1 enzyme (recombinant GST-HDAC1) (Homo sapiens (Human), UniProt Q13547); assay: In vitro HDAC assay (BIOMOL fluorescent-based), HDAC1 enzyme; assay type: biochemical
HDAC1 enzyme (recombinant GST-HDAC1), sequence (Q13547 whole entry): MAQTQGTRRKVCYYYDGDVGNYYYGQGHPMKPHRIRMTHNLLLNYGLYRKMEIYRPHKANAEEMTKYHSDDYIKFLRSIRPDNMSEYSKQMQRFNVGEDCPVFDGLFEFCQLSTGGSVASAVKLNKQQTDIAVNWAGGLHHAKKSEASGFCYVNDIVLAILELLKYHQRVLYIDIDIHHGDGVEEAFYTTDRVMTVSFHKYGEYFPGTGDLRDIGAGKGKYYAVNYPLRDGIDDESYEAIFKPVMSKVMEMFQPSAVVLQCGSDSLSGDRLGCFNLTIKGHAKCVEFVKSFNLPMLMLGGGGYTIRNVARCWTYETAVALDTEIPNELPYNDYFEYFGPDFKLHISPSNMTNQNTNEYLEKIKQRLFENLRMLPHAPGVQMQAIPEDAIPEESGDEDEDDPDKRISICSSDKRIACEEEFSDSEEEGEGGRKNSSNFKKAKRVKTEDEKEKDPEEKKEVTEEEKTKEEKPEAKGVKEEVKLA
Protocol: (§1) Expression of GST-HDAC1 or HTGST-HDAC8 was done by infecting SF9 cells (Invitrogen Pte Ltd) with pDEST20-HDAC1 or pFASTBAC-GST-HDAC8 baculovirus at MOI=1 for 48 h. Soluble cell lysate was incubated with pre-equilibrated Glutathione Sepharose 4B beads (Amersham) at 4° C. for 2 h. The beads were washed with PBS buffer for 3 times. The GST-HDAC1 protein or GST-HDAC8 protein was eluted by elution buffer containing 50 mM Tris, pH8.0, 150 mM NaCl, 1% Triton X-100 and 10 mM or 20 mM reduced Glutathione. The purified GST-HDAC1 protein or purified GST-HDAC8 protein was dialyzed with HDAC storage buffer containing 10 mM Tris, pH7.5, 100 mM NaCl and 3 mM MgCl2. 20% Glycerol was added to purified GST-HDAC1 protein or purified GST-HDAC8 before storage at −80° C.

[3] = biological target: HDAC8 enzyme (recombinant GST-HDAC8) (Homo sapiens (Human), UniProt Q9BY41); assay: In vitro HDAC assay (BIOMOL fluorescent-based), HDAC8 enzyme; assay type: biochemical
HDAC8 enzyme (recombinant GST-HDAC8), sequence (Q9BY41 whole entry): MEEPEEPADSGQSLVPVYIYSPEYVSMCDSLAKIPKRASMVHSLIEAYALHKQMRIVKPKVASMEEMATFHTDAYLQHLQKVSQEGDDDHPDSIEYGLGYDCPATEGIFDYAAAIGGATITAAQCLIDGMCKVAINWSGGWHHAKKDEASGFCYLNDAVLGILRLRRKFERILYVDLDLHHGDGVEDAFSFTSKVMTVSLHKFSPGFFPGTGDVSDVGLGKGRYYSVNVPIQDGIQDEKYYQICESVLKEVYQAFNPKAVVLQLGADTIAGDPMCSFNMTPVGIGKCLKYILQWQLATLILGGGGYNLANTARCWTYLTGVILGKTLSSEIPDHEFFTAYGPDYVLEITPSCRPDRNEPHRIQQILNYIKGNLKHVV
Protocol: as §1

Compound | GI50 (Colo205 cells; COLO 205) | GI50 (MDA-MB435 cells) | further results
CN(C)CC(C)(C)Cn1c(SCc2ccccc2)nc2cc(/C=C/C(=O)NO)ccc21 [Compound 89, N-Hydroxy-3-[2-benzylsulfanyl-1-(3-dimethylamino-2-2,dimethyl-propyl)-1H-benzimidazol-5-yl]-acrylamide] | – | – | GI50 (Colo205 cells; COLO 205, 96 h): 120 nM
COCCCn1c(CCc2ccccc2)nc2cc(/C=C/C(=O)NO)ccc21 [Compound 15] | 1990 nM | 4070 nM | –
CC(C)Cc1nc2cc(/C=C/C(=O)NO)ccc2n1CCc1ccccc1 [Compound 25, N-Hydroxy-3-(2-isobutyl-1-phenethyl-1H-benzimidazol-5-yl]-acrylamide] | 8100 nM | 6820 nM | –
COc1cc(Cn2c(CCc3ccccc3)nc3cc(/C=C/C(=O)NO)ccc32)cc(OC)c1OC [Compound 2, N-Hydroxy-3-[1-(3,4,5-trimethoxybenzyl)-2-(2-phenyl-ethyl)-1H-benzimidazol-5-yl]-acrylamide] | – | – | EC50 [1]: 1700 nM; IC50 (HDAC3): 64 nM
O=C(/C=C/c1ccc2c(c1)nc(COCc1ccccc1)n2CCc1cccnc1)NO [Compound 28] | 2530 nM | 5150 nM | –
CC(C)(C)Cn1c(CCc2ccccc2)nc2cc(/C=C/C(=O)NO)ccc21 [Compound 75] | 2880 nM | – | IC50 [2]: 290 nM
CCn1c(CNCc2ccccc2)nc2cc(/C=C/C(=O)NO)ccc21 [Compound 64, N-Hydroxy-3-[2-(benzylamino-methyl)-ethyl-1H-benzimidazol-5-yl]-acrylamide] | 1700 nM | – | –
O=C(/C=C/c1ccc2c(c1)nc(CCc1ccccc1)n2CCCN1CCOCC1)NO [Compound 31, N-Hydroxy-3-[1-(3-morpholin-4-propyl]-2-phenethyl-1H-benzimidazol-5-yl}-acrylamide] | 1870 nM | 4060 nM | –
O=C(/C=C/c1ccc2c(c1)nc(CCc1ccccc1)n2CCN1CCCCC1)NO [Compound 67, N-Hydroxy-3-[2-phenethyl-1-(piperidin-1-yl-ethyl)-1H-benzimidazol-5-yl]-acrylamide] | – | – | IC50 (HDAC3): 56 nM
O=C(O)CCn1c(CCc2ccccc2)nc2cc(/C=C/C(=O)NO)ccc21 [Compound 32, 3-[5-(2-Hydrocarbamoyl-vinyl)-2-phenethyl-benzimidazol-1-yl]-propionic acid] | – | – | IC50 [3]: 1890 nM
CN(C)CC(C)(C)Cn1c(CCc2ccccc2)nc2cc(/C=C/C(=O)NO)ccc21 [Compound 17, N-Hydroxy-3-[1-(3-Dimethylamino-2,2-dimethyl-proppyl)-2-phenethyl-1H-benzimidazol-5-yl]-acrylamide] | – | – | EC50 [1]: 1100 nM; IC50 (HDAC3): 29 nM
O=C(/C=C/c1ccc2c(c1)nc(-c1ccccn1)n2CCCO)NO [Compound 13, N-Hydroxy-3-[1-(3-hydroxy-propyl)-2-(2-pyridyl)-1H-benzimidazol-5-yl]-acrylamide] | 12300 nM | 14000 nM | –
O=C(/C=C/c1ccc2c(c1)nc(CCc1ccccc1)n2Cc1ccccn1)NO [Compound 16, N-Hydroxy-3-(2-phenethyl-1-(pyridin-2-yl)methyl-1H-benzimidazol-5-yl)-acrylamide] | 940 nM | 980 nM | –
O=C(/C=C/c1ccc2c(c1)nc(CCc1ccccc1)n2CCN1CCCC1)NO [Compound 72, N-Hydroxy-3-[2-phenyethyl-1-(2-pyrrolidin-1-yl-ethyl)-1H-benzimidazol-5-yl]-acrylamide] | 180 nM | – | –
CCCn1c(CCc2ccccc2)nc2cc(/C=C/C(=O)NO)ccc21 [Compound 36, N-Hydroxy-3-(2-phenethyl-1-propyl-1H-benzimidazol-5-yl}-acrylamide] | 2290 nM | 2170 nM | –
COc1cc(-c2nc3cc(/C=C/C(=O)NO)ccc3n2CC(O)CO)ccc1OCc1ccccc1 (centres unmarked) [Compound 7, N-Hydroxy-3-[2-(4-benzyloxy-3-methoxy-phenyl)-1-(2,3-hydroxy-propyl)-1H-benzimidazole-5-yl]-acrylamide] | > 100000 nM | – | –
O=C(/C=C/c1ccc2nc(CCc3ccccc3)n(Cc3ccccc3)c2c1)NO [Compound 58] | – | – | IC50 [2]: 1140 nM
COc1ccc(-c2nc3cc(/C=C/C(=O)NO)ccc3n2CC(O)CO)cc1 (centres unmarked) [Compound 6, N-Hydroxy-3-[1-(2,3-hydroxy-propyl)-2-(4-methoxy-phenyl)-1H-benzimidazole-5-yl]-acrylamide] | > 100000 nM | – | –
O=C(/C=C/c1ccc2c(c1)nc(-c1ccccn1)n2CC(O)CO)NO (centres unmarked) [Compound 9, N-Hydroxy-3-[1-(2,3-hydroxy-propyl)-2-(2-pyridyl)-1H-benzimidazol-5-yl]-acrylamide] | > 100000 nM | > 100000 nM | –
Cc1nc2cc(/C=C/C(=O)NO)ccc2n1C [Compound 53] | – | – | IC50 [2]: 1850 nM
Cn1c(CNC(=O)Cc2ccccc2)nc2cc(/C=C/C(=O)NO)ccc21 [Compound 54] | 4470 nM | 5920 nM | –
O=C(/C=C/c1ccc2c(c1)nc(CCc1ccccc1)n2CC(O)CO)NO (centres unmarked) [Compound 8] | 41400 nM | 58400 nM | –
O=C(/C=C/c1ccc2c(c1)nc(C1CCCCC1)n2CCCO)NO [Compound 24, N-Hydroxy-[2-cyclohexyl-1-(3-hydroxy-propyl)-1H-benzimidazol-5-yl]-acrylamide] | 30700 nM | 35000 nM | –
O=C(/C=C/c1ccc2c(c1)nc(COCc1ccccc1)n2CCCO)NO [Compound 19] | 4100 nM | 3970 nM | –

More lines, main results first:

GI50 (Colo205 cells; COLO 205) | GI50 (MDA-MB435 cells) | Compound | further results
> 100000 nM | > 100000 nM | O=C(/C=C/c1ccc2c(c1)nc(CCc1ccccc1)n2CCCn1ccnc1)NO [Compound 56, N-Hydroxy-3-[1-(3-imidazol-1-yl-propyl)-2-phenethyl-1H-benzimidazol-5-yl]-acrylamide] | –
1650 nM | – | O=C(/C=C/c1ccc2[nH]c(CCc3ccc(F)cc3)nc2c1)NO [Compound 85] | –
1650 nM | 1910 nM | CC(Cc1nc2cc(/C=C/C(=O)NO)ccc2n1CCc1cccnc1)c1ccccc1 (centres unmarked) [Compound 41] | –
4690 nM | 6160 nM | O=C(/C=C/c1ccc2c(c1)nc(CCc1ccccc1)n2CCc1ccccn1)NO [Compound 18] | –
2690 nM | 3050 nM | Cn1c(CN(Cc2ccccc2)Cc2ccccc2)nc2cc(/C=C/C(=O)NO)ccc21 [Compound 61] | –
47700 nM | – | O=C(/C=C/c1ccc2[nH]c(CCc3cccnc3)nc2c1)NO [Compound 87] | –
2820 nM | 3650 nM | O=C(/C=C/c1ccc2c(c1)nc(CCc1ccccc1)n2CCN1CCOCC1)NO [Compound 44] | IC50 [3]: 345 nM; IC50 [2]: 268 nM
7090 nM | – | CCn1c(CCNS(=O)(=O)c2ccccc2)nc2cc(/C=C/C(=O)NO)ccc21 [Compound 71] | –
250 nM | – | CN(C)CC(C)(C)Cn1c(CCCc2ccccc2)nc2cc(/C=C/C(=O)NO)ccc21 [Compound 83] | –
2900 nM | – | CCn1c(CCNC(=O)Cc2ccccc2)nc2cc(/C=C/C(=O)NO)ccc21 [Compound 70] | –
170 nM | – | CN(C)CC(C)(C)Cn1c(CCc2ccc(F)cc2)nc2cc(/C=C/C(=O)NO)ccc21 [Compound 84] | –
6670 nM | – | CCn1c(CCNC(=O)COc2ccccc2)nc2cc(/C=C/C(=O)NO)ccc21 [Compound 73] | –
13500 nM | 13400 nM | CC(C)Cc1nc2cc(/C=C/C(=O)NO)ccc2n1CCc1ccccn1 [Compound 22] | –
730 nM | – | CCn1c(CN(Cc2ccccc2)Cc2ccccc2)nc2cc(/C=C/C(=O)NO)ccc21 [Compound 68] | –
25600 nM | 31000 nM | O=C(NO)c1ccc2c(c1)nc(CCc1ccccc1)n2CCCO [Compound 40, 1-(3-Hydroxy-propyl)-2-phenethyl-1H-benzimidazol-5-carboxylic acid hydroxyamide] | –
7160 nM | – | Cn1c(CNC(=O)Cc2ccc(F)cc2)nc2cc(/C=C/C(=O)NO)ccc21 [Compound 69] | –
11600 nM | 19800 nM | COc1ccc(CNCc2nc3cc(/C=C/C(=O)NO)ccc3n2C)cc1 [Compound 62] | –
> 100000 nM | > 100000 nM | Cn1c(CNC(=O)c2ccncc2)nc2cc(/C=C/C(=O)NO)ccc21 [Compound 55] | IC50 [2]: 137 nM
2720 nM | 3690 nM | Cn1c(CCc2ccccc2)nc2ccc(/C=C/C(=O)NO)cc21 [Compound 59] | IC50 [2]: 382 nM
2410 nM | 1900 nM | COc1cc(Cn2c(CCc3ccccc3)nc3cc(CCC(=O)NO)ccc32)cc(OC)c1OC [Compound 45] | –

Source: US10201527B2, “Benzimidazole derivatives: preparation and pharmaceutical applications” (MEI PHARMA, INC., priority 2003, dated 2019)
